Measurements taken from patent publication US8431593B2, “Heteroaryl amide derivatives” (H. Lundbeck A/S, priority 2006, dated 2013).
pIC50: −log10 of the molar value.

biological target: T1, P2X7 receptor (Homo sapiens, UniProt Q99572); test: P2X7 calcium mobilization assay, high throughput, antagonist activity (Example 4A); format: cell-based; details: not given
T1 construct: host or cells: SH-SY5Y
T1 sequence (Q99572 1-595): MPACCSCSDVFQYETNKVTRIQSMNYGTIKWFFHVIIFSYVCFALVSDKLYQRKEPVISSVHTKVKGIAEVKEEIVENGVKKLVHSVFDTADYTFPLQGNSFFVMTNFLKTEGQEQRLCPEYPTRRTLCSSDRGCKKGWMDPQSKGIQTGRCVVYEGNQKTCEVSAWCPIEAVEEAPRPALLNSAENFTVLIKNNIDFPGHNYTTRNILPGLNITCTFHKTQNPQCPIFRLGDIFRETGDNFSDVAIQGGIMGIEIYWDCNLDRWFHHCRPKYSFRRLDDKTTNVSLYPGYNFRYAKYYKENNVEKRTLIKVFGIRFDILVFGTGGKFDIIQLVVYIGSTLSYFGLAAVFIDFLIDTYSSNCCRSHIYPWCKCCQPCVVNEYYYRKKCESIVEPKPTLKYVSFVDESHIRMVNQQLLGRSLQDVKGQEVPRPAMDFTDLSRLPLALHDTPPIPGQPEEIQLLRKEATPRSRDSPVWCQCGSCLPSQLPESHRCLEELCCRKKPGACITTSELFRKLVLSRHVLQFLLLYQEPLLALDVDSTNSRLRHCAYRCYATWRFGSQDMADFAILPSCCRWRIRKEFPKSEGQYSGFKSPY
Outline: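 Cells plated at 100,000/well the day before were dye-loaded for 1 h, then incubated 1 h at room temperature with test compound before agonist-triggered calcium mobilization was read on FLIPR Tetra. Maximum RFU was corrected by subtracting the no-agonist control and related to the agonist-control response.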

Compound | pIC50
CCOC(=O)c1cnn(Cc2cn3c(C(=O)NCC45CC6CC(CC(C6)C4)C5)cccc3n2)c1 [Compound 204, ethyl 1-({5-[(adamantan-1-ylmethyl)carbamoyl]imi-dazo[1,2-a]pyridin-2-yl}methyl)-1H-pyrazole-4-carboxylate] | > 5.70

same assay, conditions: 50% decrease in the fluorescence response of cells exposed to 80 μM of 2′(3′)-O-(4-benzoyl-benzoyl)adenosine 5′-triphosphate; Example 4A; read-out: IC50

Compound | pIC50
CCN(CC)CCN(C)C(=O)c1cn2c(C(=O)NCC34CC5CC(CC(C5)C3)C4)cccc2n1 [Compound 675, 5-N-(adamantan-1-ylmethyl)-2-N-[2-(diethylamino)ethyl]-2-N-methylimidazo[1,2-a]pyridine-2,5-dicarboxamide] | > 5.70
NC1CC2CCC(C1)N2C(=O)c1cn2c(C(=O)NCC34CC5CC(CC(C5)C3)C4)cccc2n1 (stereo not shown) [Compound 640, N-(adamantan-1-ylmethyl)-2-[(3-amino-8-azabicyclo[3.2.1]oct-8-yl)carbonyl]imidazo[1,2-a]pyridine-5-carboxamide] | > 5.70

Other lines, results leading:

pIC50 | Compound
> 5.70 | CC(C)CC(CNC(=O)c1cccc2nc(CN3CC[C@@H](NC(=O)OC(C)(C)C)C3)cn12)C1CCCCC1 (stereo in doubt) [Compound 738, tert-butyl [1-({5-[(2-cyclohexyl-4-methylpentyl)carbamoyl]imidazo [1,2-a]pyridin-2-yl}methyl)pyrrolidin-3-yl]carbamate]
> 5.70 | N[C@@H]1CCN(Cc2cn3c(C(=O)NCC(CC4CCC4)c4ccccc4)cccc3n2)C1 (stereo partly shown) [Compound 783, 2-[(3-aminopyrrolidin-1-yl)methyl]-N-(3-cyclobutyl-2-phenylpropyl) imidazo [1,2-a]pyridine-5-carboxamide]
> 5.70 | CCOC(=O)C(Cc1ccncc1)c1cn2c(C(=O)NCC34CC5CC(CC(C5)C3)C4)cccc2n1 (stereo not shown) [Compound 735, ethyl 2-{5-[(adamantan-1-ylmethyl)carbamoyl]imidazo[1,2-a]pyridin-2-yl}-3-pyridin-4-ylpropanoate]
> 5.70 | CN(Cc1ccc(C(F)(F)F)cn1)C(=O)c1cn2c(C(=O)NCC34CC5CC(CC(C5)C3)C4)cccc2n1 [Compound 711, 5-N-(adamantan-1-ylmethyl)-2-N-methyl-2-N-{[5-(trifluoromethyl)pyridin-2-yl]methyl}imidazo[1,2-a]pyridine-2,5-dicarboxamide]
> 5.70 | CC(C)(C)OC(=O)N[C@@H]1CCN(Cc2cn3c(C(=O)NCC(CC4CCC4)c4ccccc4)cccc3n2)C1 (stereo in doubt) [Compound 777, tert-butyl [1-({5-[(3-cyclobutyl-2-phenylpropyl)carbamoyl]imidazo[1,2-a]pyridin-2-yl}methyl)pyrrolidin-3-yl]carbamate]
> 5.70 | O=C(O)CCCc1cn2c(C(=O)NCC34CC5CC(CC(C5)C3)C4)cccc2n1 [Compound 692, 4-{5-[(adamantan-1-ylmethyl)carbamoyl]imidazo[1,2-a]pyridin-2-yl} butanoic acid]
> 5.70 | O=C(NCC12CC3CC(CC(C3)C1)C2)c1cccc2nc(C(=O)N3CCN([C@@H]4CCC[C@H]4O)CC3)cn12 [Compound 700, N-(adamantan-1-ylmethyl)-2-({4-[(1R,2R)-2-hydroxycyclopentyl]piperazin-1-yl}carbonyl)imidazo[1,2-a]pyridine-5-carboxamide]
> 5.70 | N[C@@H]1CCCN(C(=O)Cc2cn3c(NC(=O)CC45CC6CC(CC(C6)C4)C5)cccc3n2)C1 [Compound 771, 2-adamantan-1-yl-N-(2-{2-[(3R)-3-aminopiperidin-1-yl]-2-oxoethyl}imidazo[1,2-a]pyridin-5-yl)acetamide]
> 5.70 | CN(Cc1cn2c(C(=O)NCC34CC5CC(CC(C5)C3)C4)cccc2n1)c1ncccc1C(=O)O [Compound 774, 2-[({5-[(adamantan-1-ylmethyl)carbamoyl]imidazo[1,2-a]pyridin-2-yl}methyl) (methyl)amino] nicotinic acid]

same assay, conditions: 50% decrease in the fluorescence response of cells exposed to 80 μM of 2′(3′)-O-(4-benzoyl-benzoyl)adenosine 5′-triphosphate; determined as in Example 4A; read-out: IC50

pIC50 | Compound
> 5.70 | O=C(Cc1cn2c(C(=O)NCCc3ccccc3)cccc2n1)NCC1(c2ccc(Cl)cc2)CCCCC1 [Compound 979, 2-[2-({[1-(4-chlorophenyl)cyclohexyl]methyl}amino)-2-oxoethyl]-N-(2-phenylethyl) imidazo[1,2-a]pyridine-5-carboxamide]
> 5.70 | CC(C)CCC(C(=O)O)c1cn2c(C(=O)NCC34CC5CC(CC(C5)C3)C4)cccc2n1 (stereo not shown) [Compound 912, 2-{5-[(adamantan-1-ylmethyl)carbamoyl]imidazo[1,2-a]pyridin-2-yl}-5-methylhexanoic acid]
> 5.70 | CC(C)(C)[Si](C)(C)OCCCn1ccc(NCc2cn3c(C(=O)NCC45CC6CC(CC(C6)C4)C5)cccc3n2)n1 [Compound 999, N-(adamantan-1-ylmethyl)-2-({[1-(3-{[tert-butyl (dimethyl)silyl]oxy}propyl)-1H-pyrazol-3-yl]amino}methyl) imidazo[1,2-a] pyridine-5-carboxamide]
> 5.70 | COc1ccc(C2(CNC(=O)c3cccc4nc(CC(Cc5ccccc5)C(=O)O)cn34)CCCCC2)cc1 (stereo not shown) [Compound 1014, 2-benzyl-3-[5-({[1-(4-methoxyphenyl)cyclohexyl]methyl}carbamoyl)imidazo[1,2-a]pyridin-2-yl]propanoic acid]

same assay, conditions: P2X7 calcium mobilization, Example 4A; 50% decrease in the fluorescence response of cells exposed to 80 μM of (2′(3′)-O-(4-benzoyl-benzoyl)adenosine 5′-triphosephate); read-out: IC50

pIC50 | Compound
> 5.70 | CCOC(=O)Cc1cn2cc(C(=O)NCC34CC5CC(CC(C5)C3)C4)ccc2n1 [Compound 1063, ethyl {6-[(adamantan-1-ylmethyl)carbamoyl]imidazo[1,2-a]pyridin-2-yl} acetate]

same assay, conditions: SH-SY5Y cells; 50% decrease in fluorescence response to 80 μM BzATP; read-out: IC50

pIC50 | Compound
> 5.70 | O=C(Cc1cn2c(C(=O)NCC34CC5CC(CC(C5)C3)C4)cccc2n1)NC1CCCCC1 [Compound 149, N-(adamantan-1-ylmethyl)-2-[2-(cyclohexylamino)-2-oxoethyl]imidazo[1,2-a]pyridine-5-carboxamide]
> 5.70 | CN(CCNS(C)(=O)=O)C(=O)c1cn2c(C(=O)NCC34CC5CC(CC(C5)C3)C4)cccc2n1 [Compound 98, 5-N-(adamantan-1-ylmethyl)--methyl--{2-[(methyl-sulfonyl)amino]eth-yl)imidazo[1,2-a]pyridine-2,5-dicarboxamide]
> 5.70 | O=C(NCC12CC3CC(CC(C3)C1)C2)c1cccc2nc(C(=O)N3CCC(O)CC3)cn12 [Compound 106, N-(adamantan-1-ylmethyl)-2-[(4-hydroxypiperidin-1-yl)carbonyl]imidazo[1,2-a]pyridine-5-carboxamide]
> 5.70 | CCC(O)CNC(=O)c1cn2c(C(=O)NCC34CC5CC(CC(C5)C3)C4)cccc2n1 (stereo not shown) [Compound 83, 5-N-(adamantan-1-ylmethyl)--(2-hydroxy-butyl)imidazo[1,2-a]pyridine-2,5-dicarboxamide]
> 5.70 | CN(C)C(=O)CNC(=O)c1cn2c(C(=O)NCC34CC5CC(CC(C5)C3)C4)cccc2n1 [Compound 74, 5-N-(adamantan-1-ylmethyl)--[2-(dimethylamino)-2-oxoethyl]imidazo[1,2-a]pyridine-2,5-dicarboxamide]
> 5.70 | CS(=O)(=O)OCCc1cn2c(C(=O)NCC34CC5CC(CC(C5)C3)C4)cccc2n1 [Compound 63, methanesulfonic acid 2-{5-[(adamantan-1-ylmethyl)-carbamoyl]-imidazo[1,2-a]pyridin-2-yl}-ethyl ester]

same assay, conditions: fluorescence response of cells exposed to 80 μM 2′(3′)-O-(4-benzoyl-benzoyl)adenosine 5′-triphosphate; Example 4A; read-out: IC50

pIC50 | Compound
> 5.70 | NCCS(=O)(=O)Cc1cn2c(C(=O)NCC34CC5CC(CC(C5)C3)C4)cccc2n1 [Compound 283, N-(adamantan-1-ylmethyl)-2-{[(2-aminoethyl)sulfonyl]methyl}imidazo [1,2-a]pyridine-5-carboxamide]
> 5.70 | CC1(C)[C@H]2CC[C@@H](CNC(=O)c3cccc4nc(C(=O)N5CCCC(CN)C5)cn34)[C@@H]1C2 (stereo partly drawn) [Compound 322, 2-{[3-(aminomethyl)piperidin-1-yl]carbonyl}-N-{[(1S,2R,5S)-6,6-dimethylbicyclo[3.1.1]hept-2-yl]methyl}imidazo[1,2-a]pyridine-5-carboxamide]
> 5.70 | Cc1cc(-c2cn3c(C(=O)NCC45CC6CC(CC(C6)C4)C5)cccc3n2)nn1CCO [Compound 340, N-(adamantan-1-ylmethyl)-2-[1-(2-hydroxyethyl)-5-methyl-1H-pyrazol-3-yl]imidazo[1,2-a]pyridine-5-carboxamide]
> 5.70 | NCC(=O)NCCc1cn2c(C(=O)NCC34CC5CC(CC(C5)C3)C4)cccc2n1 [Compound 269, N-(adamantan-1-ylmethyl)-2-[2-(glycylamino)ethyl] imidazo[1,2-a] pyridine-5-carboxamide]
> 5.70 | CCOC(=O)c1cn2c(C(=O)NC(C)C34CC5CC(CC(C5)C3)C4)cccc2n1 (stereo not shown) [Compound 280, ethyl 5-[(1-adamantan-1-ylethyl)carbamoyl] imidazo[1,2-a] pyridine-2-carboxylate]
